Columns and labels:
[1] = test system: LS174T human colon carcinoma xenografts; experiment: IMMU-130 therapy of s.c. LS174T xenografts in nude mice; type: in vivo, athymic nude mice; settings: s.c. model
Procedure: (§1) Experiments were conducted in female athymic nude mice, 4 weeks or older, bearing s.c. LS174T human colon carcinoma xenografts of (˜0.2 cm^3 size), or 2 weeks after lung metastases were generated by i.v. injection of GW-39 human colon carcinoma cells. Untreated controls, including a non-targeting ADC, were included. […] Tolerability studies were conducted in white New Zealand rabbits.

[2] = Drug release from the linker in IMMU-130
metastatic colon cancer [3] = experiment: S.C. hMN-14-SN-38 ADC in advanced metastatic colon cancer (Example 16); type: in vivo, human; settings: 2 mg/kg S.C. twice-weekly every other week, 3-month CT evaluation
Procedure: The hMN-14-SN-38 ADC is administered at a dosage of 2 mg/kg S.C., twice-weekly, which is repeated every other week for 4 months.

[4] = test system: gastric adenocarcinoma metastases; experiment: I.V. and S.C. IMMU-130 in a gastric cancer patient (Example 15); type: in vivo, human
From the text: Their fourth infusion is postponed by one week, and then the weekly infusions are reinstituted, with no evidence of diarrhea or neutropenia for the next 4 injection. The patient then undergoes a CT study to measure their metastatic tumor sizes and to view the original area of gastric resection. The radiologist measures, according to RECIST criteria, a decrease of the sum of the metastatic lesions, compared to baseline prior to IMMU-130 therapy, of 23%. […] The patient's general condition improves and they resume their usual activities while continuing to receive a maintenance therapy of 3 mg/kg administered twice-weekly subcutaneously of IMMU-130 every six weeks for another 4 courses of therapy. At the last measurement of blood CEA, the value is 4.8 ng/mL, which is within the normal range for a smoker, which is the case for this patient.

[5] = test system: metastatic colonic cancer; experiment: IMMU-130 in a patient with advanced colon cancer (Example 13); type: in vivo, human
From the text: The patient is a person with a history of stage-IV metastatic colonic cancer, first diagnosed in 2008 and given a colectomy and partial hepatectomy for the primary and metastatic colonic cancers, respectively. […] In 2009, they received radiofrequency ablation therapy to their liver metastasis while under chemo-immunotherapy, and in late 2010 they underwent a wedge resection of their lung metastases, which was repeated a few months later, in early 2011. Despite having chemo-immunotherapy in 2011, new lung metastases appeared at the end of 2011, and in 2012, both lung and liver metastases were visualized. Their baseline plasma carcinoembryonic antigen (CEA) titer was 12.5 ng/mL just before undergoing the antibody-drug therapy with IMMU-130. The index lesions chosen by the radiologist for measuring tumor size change by computed tomography were the mid-lobe of the right lung and the liver metastases, both totaling 91 mm as the sum of their longest diameters at the baseline prior to IMMU-130 (anti-CEACAM5-SN-38) therapy.
This patient received doses of 10 mg/kg of IMMU-130 by slow IV infusion every other week for a total of 17 treatment doses. The patient tolerated the therapy well, having only a grade 1 nausea, diarrhea and fatigue after the first treatment, which occurred after treatments 4 and 5, but not therafter, because they received medication for these side-effects. After treatment 3, they did show alopecia (grade 2), which was present during the subsequent therapy. The nausea, diarrhea, and occasional vomiting lasted only 2-3 days, and their fatigue after the first infusion lasted 2 weeks. Otherwise, the patient tolerated the therapy well.

[6] = test system: GW-39 human colon carcinoma lung metastases; experiment: IMMU-130 therapy of GW-39 lung metastases in nude mice; type: in vivo, athymic nude mice
Procedure: as §1

metastatic colon cancer [7] = experiment: Subcutaneous IMMU-130 in a patient with metastatic colon cancer (Example 11); type: in vivo, human; settings: s.c. 4 mg/kg 3 times weekly for 2 weeks, 3 cycles; CT 8 weeks from treatment begin
Procedure: A person with metastatic colon cancer (3-5 cm diameters) to their left and right liver lobes, as well as a 5 cm metastasis to their right lung, and an elevated blood CEA value of 130 ng/mL, is treated with the anti-CEACAM-5 ADC IMMU-130 (hMN-14-CL2A-SN-38) administered subcutaneously at a dosage of 4 mg/kg, given 3 times weekly for 2 weeks, followed by rest, with 3 cycles of drug administration. […] Repeated courses of therapy continue as their neutropenia normalizes.

[8] = Tolerability study of IMMU-130 in rabbits; type: in vivo, white New Zealand rabbits; settings: given as two doses
Procedure: as §1

## IMMU-130: CEACAM5-targeted ADC, labetuzumab-SN-38, substituted at 7-8 moles/mole of IgG
[1]; n=5
  efficacy vs. the conjugate with an ultrastable linker: superior
[1]; n=8-10, P<0.031
  efficacy of combination with bevacizumab: improved efficacy
[1]; n=10, P<0.0001
  efficacy vs. an MTD of 5 FU/leucovorin chemotherapy: better
[2]
  time for liberating 50% of drug: ~20 h
Metastatic colon cancer [3]
  response by RECIST criteria: partial response
[4]; 8 mg/kg I.V. weekly, first CT study
  decrease of the sum of the metastatic lesions (RECIST): 23%
[4]; after 3 weeks of 8 mg/kg I.V.
  grade of diarrhea: 1
  grade of neutropenia: 2
[4]; after a total of 13 infusions of 8.0 mg/kg I.V.
  decrease of the sum of all metastatic lesions: 41%
[4]; at first CT study, baseline 14.5 ng/mL
  CEA titer: 7.2 ng/mL
[4]; last measurement, s.c. maintenance 3 mg/kg twice-weekly
  blood CEA: 4.8 ng/mL
[5]; 10 mg/kg IV
  grade of nausea, diarrhea and fatigue: 1
[5]; 10 mg/kg IV every other week, after 4 treatments
  change in index lesions from baseline (CT): 28.6%
[5]; after 8 treatments
  reduction in index lesions from baseline (CT): 40.6%
[5]; after 16 doses
  anti-labetuzumab antibody in blood: none was detected
[5]; after the third therapy dose, baseline 12.6 ng/mL
  plasma CEA titer: 2.1 ng/mL
[5]; after treatment 3
  grade of alopecia: 2
[5]; another 2 months later
  index lesions less than baseline (CT): 31.9%
[6]; pre-dose up to twice the ADC dose, n=10
  effect of pre-dosing with labetuzumab on median survival: did not affect median survival
[6]; total 50 mg/kg ADC, 2 cycles of 21 days, twice-weekly×2 weeks and once weekly×2 weeks schedules
  median survival vs. untreated mice: doubled median survival
Metastatic colon cancer [7]
  reduction of the total mean diameters of the 3 target lesions: 25%
[8]
  NOAEL, human equivalent dose: 40 to 60 mg/kg

— patent US10799597B2, “Subcutaneous administration of antibody-drug conjugates for cancer therapy” (Immunomedics, Inc., priority 2017, dated 2020)
